For assay [1], the target named is T1, c5 (aa 1–111 of human ATGL) (Homo sapiens, UniProt Q96AD5, G146T/N133S/S158T).
T1 construct: host or cells: Expi293 cells, cell lysate
Description: TAG hydrolase assay, chimeric ATGL variants. Particulars: variant c5, NG-497 (10 μM) or Atglistatin (10 μM). It counts as biochemical, human and mouse. As for the experimental part: (§1) Figure 5 Analysis of chimeric proteins comprising human and mouse ATGL. (a) Schematic view of the minimal active domain of wild-type and chimeric ATGL variants (c1–c9). Nonidentical aa are indicated in blue and red for mouse and human ATGL, respectively. ATGL variants were expressed in Expi293 cells and TAG hydrolase activity was determined in cell lysates in the presence or absence of NG-497 (10 μM) and Atglistatin (10 μM), respectively. Inhibition of ATGL variants by respective inhibitors (tick mark) and lack of inhibition (cross) is indicated at the right edge. The expression of all ATGL variants was confirmed by Western blotting analysis (Figure S6). (b) Dose-dependent inhibition of human ATGL (aa 1–288) and c1 (human aa 1–158 and mouse aa 159–288) by NG-497. (c) Dose-dependent inhibition of mouse ATGL (aa 1–288) and c2 (mouse aa 1–158 and human aa 159–288) by Ai. IC50 values are shown in the insets. Data are presented as relative inhibition of respective DMSO controls and are indicated as mean ± SD. (d) 3D homology model of the minimal active domain of mouse ATGL (M1–L254) depicted as a cartoon. Residues 1–178 are in blue, and residues 179–254 are in gray. S47 and D166 comprising the active site are represented as green sticks. T101, C106, R109, N111, and S133 are colored in orange, A60, N68, I69, T93, C97, and T146 are colored in magenta. TEXT PRINTED IN THE PICTURE: (b) NG-497: IC50 [μM] (human): 1.3±0.1; IC50 [μM] (c1): 1.3±0.1 | (b) Ai: IC50 [μM] (human): n.det.; IC50 [μM] (c1): n.det. | (c) NG-497: IC50 [μM] (mouse): n.det.; IC50 [μM] (c2): n.det. | (c) Ai: IC50 [μM] (mouse): 2.5±0.3; IC50 [μM] (c2): 2.4±0.1 […]
(§2) We next generated variants by further stepwise humanization of c2. Variant c3 containing aa 1–23 of human ATGL was inhibited by Ai but not NG-497 (Figure 5a). […] Finally, variants of mouse ATGL containing aa 1–146 (c7) and 60–146 (c8) of human ATGL were inhibited by NG-497 but not Ai (Figure 5a).
(§3) Experimental details, materials, and methods
(§4) Expression of recombinant ATGL constructs and preparation of cell lysates. Expi293 cells were cultivated in Expi293 Expression Medium (GIBCO, Thermo Fisher Scientific, Waltham, USA) at standard conditions (37°C, 5% CO2, 95% humidified atmosphere, 125 rpm). DNA constructs containing ATGL from different species and chimeric ATGL variants in pcDNA3.1(+)myc-His C Vector were obtained from BioCat GmbH (Heidelberg, Germany). Cells were transfected with ExpiFectamine293 Transfection Kit (GIBCO) in Opti-Mem reduced serum medium (GIBCO) according to the manufacturer’s instructions. After 48 h, cells were harvested by centrifugation and washed three times with PBS. Cells were disrupted in buffer A (0.25 M sucrose, 1 mM EDTA, 1 mM dithiothreitol, 20µg/ml leupeptin, 2 µg/ml antipain, 1 µg/ml pepstatin, pH 7.0) by sonication (Virsonic 475, Virtis, Gardiner, USA). Nuclei and debris were removed by centrifugation at 1,000 g and 4°C for 10 min. Protein concentrations were determined using Bio-Rad protein assay (Bio-Rad 785, Bio-Rad Laboratories, Munich, Germany) using BSA as standard.
(§5) Expression and purification of mouse CGI-58. CGI-58 was expressed and purified as described 1. In brief, the coding sequence of mouse Cgi-58 was cloned into pHis-Sumo and co-transformed with the plasmid pTf16 expressing the chaperone Tig into E. coli BL21(DE3). Cells were cultured overnight at 37°C and 180 rpm in the presence of 40 µg/ml kanamycin and 34 µg/ml chloramphenicol. Thereafter, cells were transferred into fresh LB medium, grown until OD600 of 0.6, and expression was induced by the addition of 0.5 mM IPTG. After overnight incubation at 30°C, cells were harvested at 4,500 x g and 4°C for 20 min, washed in 1x PBS, and resuspended in lysis buffer (20 mM Tris/HCl pH 7.8, 300 mM NaCl, 30 mM imidazole, 0.1% IGEPAL CA-630, 3.5 mM β-mercaptoethanol, 20 µg/ml leupeptin, 2 µg/ml antipain and 1 µg/ml pepstatin). Cells were incubated with 1 […]

Assay [2] deals with T2, c6 (aa 1–133 of human ATGL) (Homo sapiens, UniProt Q96AD5, G146T/S158T).
T2 construct: host or cells: Expi293 cells, cell lysate
Description: TAG hydrolase assay, chimeric ATGL variants. It counts as biochemical, human and mouse. The note with it: variant c6, NG-497 (10 μM) or Atglistatin (10 μM). As for the experimental part:
as §1, §2, §3, §4, §5

For assay [3], the target named is T3, Variant c4 (aa 1–69 of human ATGL) (Homo sapiens, UniProt Q96AD5, F97C/G146T/H109R/I93T/N133S/S106C/S111N/S158T/S96G/V101T).
T3 construct: host or cells: Expi293 cells, cell lysate
Description: TAG hydrolase assay, chimeric ATGL variants. The class given is biochemical, human and mouse. Particulars: variant c4, NG-497 (10 μM) or Atglistatin (10 μM). As to the method: as §1, §2, §3, §4, §5

The target in a further assay is T4, mouse ATGL (aa 1–288) (Mus musculus, UniProt Q8BJ56).
T4 construct: mouse ATGL (aa 1–288); host or cells: Expi293 cells, crude lysate
The experiment in a line: TAG hydrolase assay, wild-type and chimeric ATGL variants. Particulars: wild-type mouse ATGL (aa 1–288). It counts as biochemical. The source says: Since experimental three-dimensional (3D) structures for ATGL are currently not available, we utilized chimeric variants of mouse and human ATGL for the identification of binding sites. The constructs c1–c9 (Figure 5a) comprised the N-terminal […] of ATGL, which are sufficient to retain enzymatic activity.[50] In variants c1 and c2, exchange of the N-terminal 158 aa between human and mouse ATGL switched inhibitor reactivity.
Figure 5 Analysis of chimeric proteins comprising human and mouse ATGL. (a) Schematic view of the minimal active domain of wild-type and chimeric ATGL variants (c1–c9). Nonidentical aa are indicated in blue and red for mouse and human ATGL, respectively. ATGL variants were expressed in Expi293 cells and TAG hydrolase activity was determined in cell lysates in the presence or absence of NG-497 (10 μM) and Atglistatin (10 μM), respectively. Inhibition of ATGL variants by respective inhibitors (tick mark) and lack of inhibition (cross) is indicated at the right edge. The expression of all ATGL variants was confirmed by Western blotting analysis (Figure S6). […]
Expression of recombinant ATGL constructs and preparation of cell lysates. […] Protein concentrations were determined using Bio-Rad protein assay (Bio-Rad 785, Bio-Rad Laboratories, Munich, Germany) using BSA as standard. […]

Each structure is given as a SMILES string. pIC50: −log10 of the molar value. Several values for one entry are separate records, joined by “and”; a condition that tells them apart may be missing. Equal values may be shown once. Read-outs that look alike come from different tables or passages of the source.

T4 sequence (Q8BJ56 1-288): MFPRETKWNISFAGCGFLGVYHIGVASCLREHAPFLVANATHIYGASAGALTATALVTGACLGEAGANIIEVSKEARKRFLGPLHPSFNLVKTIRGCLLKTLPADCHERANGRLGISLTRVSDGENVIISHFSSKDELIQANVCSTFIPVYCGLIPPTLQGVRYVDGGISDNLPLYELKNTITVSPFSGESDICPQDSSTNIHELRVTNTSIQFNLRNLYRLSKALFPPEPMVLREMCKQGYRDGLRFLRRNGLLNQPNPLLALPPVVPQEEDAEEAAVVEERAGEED
T3 sequence (Q96AD5 1-288 I93T/S96G/F97C/V101T/S106C/H109R/S111N/N133S/G146T/S158T): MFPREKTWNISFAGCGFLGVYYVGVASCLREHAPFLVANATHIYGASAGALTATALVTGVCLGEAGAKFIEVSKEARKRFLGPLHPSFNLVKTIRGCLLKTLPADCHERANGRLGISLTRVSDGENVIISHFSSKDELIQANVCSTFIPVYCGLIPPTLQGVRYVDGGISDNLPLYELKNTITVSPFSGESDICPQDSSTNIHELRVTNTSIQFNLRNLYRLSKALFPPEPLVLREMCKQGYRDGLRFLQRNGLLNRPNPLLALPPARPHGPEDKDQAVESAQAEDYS
T2 sequence (Q96AD5 1-288 G146T/S158T): as the sequence (Q96AD5 1-288 I93T/S96G/F97C/V101T/S106C/H109R/S111N/N133S/G146T/S158T) above, with T93I, G96S, C97F, T101V, C106S, R109H, N111S, S133N counted along it
T1 sequence (Q96AD5 1-288 N133S/G146T/S158T): as the sequence (Q96AD5 1-288 I93T/S96G/F97C/V101T/S106C/H109R/S111N/N133S/G146T/S158T) above, with T93I, G96S, C97F, T101V, C106S, R109H, N111S counted along it

`CN(C)C(=O)Nc1cccc(-c2ccc(N(C)C)cc2)c1` [Atglistatin, reference compound]: the “inhibition of TAG hydrolase activity” value in assay [1], in assay [2] and in assay [3] was “neither inhibited” in each case. Moreover, on mouse ATGL (aa 1–288) (read-out: IC50), the pIC50 was ~5.60 and 5.60.
For the compound `CCOc1ccc(-c2cc(OC)cc(C(=O)OC(C)C)n2)cc1` [NG-497], the “inhibition of TAG hydrolase activity” value in assay [1], in assay [2] and in assay [3] was “neither inhibited” in each case. In addition, the IC50 result on mouse ATGL (aa 1–288) is given as “ineffective”.

These data come from publication PMC9011347, “Small-Molecule Inhibitors Targeting Lipolysis in Human Adipocytes” (Journal of the American Chemical Society, 2022).
